Test results: patent publication US20230220331A1, “TEMPORARY TREATMENT MEDIUM, TREATMENT KIT, EMBRYOGENESIS ARREST INHIBITOR, EMBRYOGENESIS ARREST INHIBITORY METHOD, DEVELOPMENTAL ENGINEERING PRODUCT PREPARATION METHOD, TRANSPLANTATION METHOD, THERAPEUTIC METHOD, AND DEVELOPMENTAL ENGINEERING PRODUCT” (priority 2020, published 2023)

How the values were obtained:
Type in all cases: cell-based
[1] = test system: Pronuclear stage embryos of C57BL/6J; assay: Knockout mouse production by electroporation (TAKE), Mk-3 gene (Treatment Example 1)
Experimental: The TAKE was carried out according to the method described in Patent Document 2.
1. By 3 hours before TAKE, Y-27632-added mWM medium (Y-27632 final concentration 10 μM, an example of the “temporary treatment medium” of this example) and Y-27632-free mWM medium (an example of “normal medium” of this example) were dropped on 35 mm Petri dish in 5 drops, respectively, to prepare the drops covered with paraffin oil.
2. Pronuclear stage embryos were collected from the drops, placed in Y-27632-added mWM medium, and cultured for about 30 minutes to 1 hour (temporary treatment).
3. After that, TAKE was performed. At the time of this TAKE, as described above, the pronuclear stage embryo, after washing, was transferred to a genome editing solution for TAKE or an Opti-MEM solution. The same applied to the following processing.
4. After TAKE, the embryos were placed in Y-27632-added mWM medium (temporary treatment) and cultured under 37° C., 5% CO2, and ([…]) conditions until the next day (1 hour or more and within 12 hours).
5. If necessary, culture was continued or embryo transfer was performed in Y-free mWM medium.
According to a typical method, in the afternoon when female mice and rats were mated with males with vasoligation and confirmed to be plugged, about 10 each were transplanted into the left and right oviducts or uterus of plug-confirmed mature female mice and rats. […]

[2] = test system: frozen embryos of the inbred mouse B6J strain (blastocyst stage); assay: Surviving embryos after re-freezing and thawing of blastocysts (Treatment Example 9)
Experimental: Then, in the early embryos of the inbred mouse B6J strain, an example of using frozen embryos preserved at the blastocyst stage, using the normal medium or the temporary treatment medium according to the present embodiment before and after the manipulation, and comparing whether the occurrence changes is described. In this treatment example, as the temporary treatment medium, a Y-27632-added mWM medium so as to be 10 μM was used (in this example, it is referred to as “Y+ medium”). In addition, as the normal medium, an mWM medium to which Y-27632 was not added was used (In this example, it is referred to as “Y− medium”). As a treatment, the prepared frozen embryos were thawed and developed as they were in Y− medium until the blastocyst stage. Then, half of the embryos that had developed up to the blastocyst were transferred to Y+ medium and placed for 30 minutes. After that, the embryos were transferred to Y− medium again and placed for 30 minutes. Then, the embryos treated with Y+ medium and the embryos not treated were frozen in one tube, respectively. Both tubes of embryos were then thawed and placed in the normal medium for 10 minutes. Then, the embryos were evenly divided into Y+ medium and Y− medium, respectively, and placed for 1 hour. Then, again, each tube of embryos was returned to Y− medium in each tube and the embryos were observed. […]

NOD-scid mouse embryos = assay: Bbox1 and IL2rg DKO screening in NOD-scid mice (Treatment Example 14)
Experimental: Then, in the same manner as in Treatment Example 7 of Example 1, in the NOD-scid strain, which is another strain of a severe combined immunodeficiency mouse, genome editing of multiple genes was performed, and individuals were produced. Here, individuals in which both the mBBOX1 and mIL2RG genes of NOD-scid mice were knocked out were prepared by the same treatment method as the above-mentioned treatment example used for BALB/c nude.

[3] = Y+ before freezing and Y+ after thawing, 26 embryos
[4] = Y+ before freezing, Y− after thawing, 26 embryos
[5] = Y− before freezing, Y+ after thawing, 20 embryos
[6] = NOD-scid F0, Bbox1 and IL2rg, listed as temporary treatment medium

C[C@@H](N)[C@H]1CC[C@H](C(=O)Nc2ccncc2)CC1 [Y-27632, trans-4-[(1R)-1-Aminoethyl]-N-4-pyrid inylcyclohexanecarboxamide]
birth rate increased ([1]; C57BL/6J embryos cultured in Y-27632 medium before and after electroporation, Mk-3 knockout with two gRNAs, versus without Y-27632): about 5 times
efficiency of non-homologous end joining (NHEJ) ([1]; C57BL/6J, Mk-3 knockout, Y-27632 before and after electroporation): did not change
NUMBER OF OUTGROWTH, 24 hours after thawing [2, 3]: (11)
surviving embryos 3 HOURS AND A HALF AFTER THAWING [2, 3]: 12
surviving embryos 24 HOURS AFTER THAWING [2, 3]: 24
surviving embryos IMMEDIENTLY AFTER THAWING [2, 3]: 7
RECOVERY RATE ([2]; Y+ before freezing and Y+ after thawing, 26 embryos, frozen twice, listed as Y+): 92%
RECOVERY RATE ([2]; Y+ before freezing and Y+ after thawing, 26 embryos, frozen twice, listed as Y+ medium): up to 92%
NUMBER OF OUTGROWTH, 24 hours after thawing [2, 4]: (7)
RECOVERY RATE [2, 4]: 70%
surviving embryos 3 HOURS AND A HALF AFTER THAWING [2, 4]: 11
surviving embryos 24 HOURS AFTER THAWING [2, 4]: 14
surviving embryos IMMEDIENTLY AFTER THAWING [2, 4]: 6
NUMBER OF OUTGROWTH, 24 hours after thawing [2, 5]: (3)
RECOVERY RATE [2, 5]: 55%
surviving embryos 3 HOURS AND A HALF AFTER THAWING [2, 5]: 5
surviving embryos 24 HOURS AFTER THAWING [2, 5]: 11
surviving embryos IMMEDIENTLY AFTER THAWING ([2]; Y− before freezing, Y+ after thawing, 20 embryos, Y-27632 10 μM): 3
individuals mutated at Bbox1 Ex3 (chr. 2) (proportion) (NOD-scid mouse embryos; NOD-scid F0): #U: unknown mutation (4/9) (4/9)
individuals mutated at Il2rg (chr. X) Ex2 (proportion) (NOD-scid mouse embryos; NOD-scid F0): #U: unknown mutation (4/9) (4/9)
individuals mutated at Il2rg (chr. X) Ex3 (proportion) (NOD-scid mouse embryos; NOD-scid F0): #U: unknown mutation (4/9) (4/9)
individuals with mutations in one of the two genes (%) (NOD-scid mouse embryos; [6]): 66.7%
individuals with mutations in one of the two genes (proportion) (NOD-scid mouse embryos; [6]): 6 out of 9 and (6/9)
